Laboratory results reported in ChEMBL document CHEMBL5233285, “Recent Update on the Development of PCSK9 Inhibitors for Hypercholesterolemia Treatment” (J Med Chem, 2022).

Legend:
[1] = molecular target: T1, Proprotein convertase subtilisin/kexin type 9 (Homo sapiens, UniProt Q8NBP7); assay: Binding affinity to human PCSK9
PCSK9/LDLR [2] = molecular target: T2, PCSK9/LDLR (Homo sapiens, UniProt Q8NBP7); assay: Inhibition of PCSK9-LDLR (unknown origin) protein-protein interaction; assay type: protein assay
T2 sequence (Q8NBP7 31-152 limits assumed): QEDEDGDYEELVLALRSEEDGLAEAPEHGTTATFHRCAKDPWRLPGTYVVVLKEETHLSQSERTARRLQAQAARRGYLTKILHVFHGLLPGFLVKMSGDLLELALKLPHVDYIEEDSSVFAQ
T2 sequence (Q8NBP7 153-692 limits assumed): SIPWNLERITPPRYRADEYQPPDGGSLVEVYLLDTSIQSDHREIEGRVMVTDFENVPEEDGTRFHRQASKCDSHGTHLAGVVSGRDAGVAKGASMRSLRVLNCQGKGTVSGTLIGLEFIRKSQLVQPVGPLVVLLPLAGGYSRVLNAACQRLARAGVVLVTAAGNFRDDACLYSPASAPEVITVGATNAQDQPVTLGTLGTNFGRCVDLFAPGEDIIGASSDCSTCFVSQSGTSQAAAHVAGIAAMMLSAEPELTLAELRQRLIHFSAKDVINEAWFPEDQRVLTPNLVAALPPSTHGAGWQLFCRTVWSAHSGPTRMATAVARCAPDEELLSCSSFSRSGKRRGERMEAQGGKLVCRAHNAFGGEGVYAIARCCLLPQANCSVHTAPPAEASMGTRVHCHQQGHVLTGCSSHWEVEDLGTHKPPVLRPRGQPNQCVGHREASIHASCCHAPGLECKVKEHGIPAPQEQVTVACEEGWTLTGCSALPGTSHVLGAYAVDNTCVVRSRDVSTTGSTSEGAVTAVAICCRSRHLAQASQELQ
T2 sequence (P01130 22-860 partner limits assumed): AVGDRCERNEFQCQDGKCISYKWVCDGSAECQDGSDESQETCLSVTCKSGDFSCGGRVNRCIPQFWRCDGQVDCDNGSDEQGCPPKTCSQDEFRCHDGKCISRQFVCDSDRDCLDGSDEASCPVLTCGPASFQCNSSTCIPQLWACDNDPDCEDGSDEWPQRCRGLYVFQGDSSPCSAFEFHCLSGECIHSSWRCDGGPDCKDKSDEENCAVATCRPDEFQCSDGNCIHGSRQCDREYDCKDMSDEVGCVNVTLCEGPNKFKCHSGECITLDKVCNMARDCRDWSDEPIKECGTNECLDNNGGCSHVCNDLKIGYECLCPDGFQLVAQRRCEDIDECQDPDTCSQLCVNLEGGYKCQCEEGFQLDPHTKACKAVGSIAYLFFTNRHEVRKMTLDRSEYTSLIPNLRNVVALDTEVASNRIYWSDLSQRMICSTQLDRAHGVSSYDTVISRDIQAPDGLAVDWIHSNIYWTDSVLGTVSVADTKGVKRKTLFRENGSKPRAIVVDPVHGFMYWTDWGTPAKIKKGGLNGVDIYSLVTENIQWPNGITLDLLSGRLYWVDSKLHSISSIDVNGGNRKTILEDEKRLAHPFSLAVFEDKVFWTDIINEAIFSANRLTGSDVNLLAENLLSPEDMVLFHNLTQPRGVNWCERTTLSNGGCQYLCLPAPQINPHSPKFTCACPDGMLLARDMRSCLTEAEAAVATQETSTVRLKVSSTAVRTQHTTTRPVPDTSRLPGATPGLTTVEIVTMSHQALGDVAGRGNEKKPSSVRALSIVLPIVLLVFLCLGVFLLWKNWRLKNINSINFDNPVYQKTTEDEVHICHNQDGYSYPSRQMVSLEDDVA

[3] = molecular target: Proprotein convertase subtilisin/kexin type 9 (Mus musculus, UniProt Q80W65); assay: Binding affinity to mouse PCSK9
Chain of Proprotein convertase subtilisin/kexin type 9 (Mus musculus, UniProt Q80W65) (Q80W65 35-155 limits assumed): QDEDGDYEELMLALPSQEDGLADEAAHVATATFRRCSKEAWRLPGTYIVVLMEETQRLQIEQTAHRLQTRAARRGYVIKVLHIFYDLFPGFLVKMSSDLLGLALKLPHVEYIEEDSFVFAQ
Chain of Proprotein convertase subtilisin/kexin type 9 (Mus musculus, UniProt Q80W65) (Q80W65 156-694 limits assumed): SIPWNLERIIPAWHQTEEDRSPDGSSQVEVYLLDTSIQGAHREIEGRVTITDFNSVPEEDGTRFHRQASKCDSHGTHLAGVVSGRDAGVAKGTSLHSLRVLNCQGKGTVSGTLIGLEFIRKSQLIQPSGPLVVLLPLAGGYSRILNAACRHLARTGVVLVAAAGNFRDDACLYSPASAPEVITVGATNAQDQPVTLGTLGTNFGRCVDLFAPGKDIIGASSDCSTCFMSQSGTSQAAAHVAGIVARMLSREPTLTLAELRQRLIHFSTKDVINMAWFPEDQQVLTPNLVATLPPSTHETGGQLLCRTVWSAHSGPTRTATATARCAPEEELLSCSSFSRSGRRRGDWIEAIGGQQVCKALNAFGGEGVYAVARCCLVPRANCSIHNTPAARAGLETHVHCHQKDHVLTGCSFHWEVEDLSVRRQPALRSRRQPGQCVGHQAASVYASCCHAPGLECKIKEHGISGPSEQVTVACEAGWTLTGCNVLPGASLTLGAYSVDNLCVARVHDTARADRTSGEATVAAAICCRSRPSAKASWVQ

PCSK9/LDLR [4] = molecular target: T2, PCSK9/LDLR; assay: Inhibition of PCSK9-LDLR protein-protein interaction in human HepG2 cells assessed as increase in LDL uptake; assay type: cell-based
Mus musculus [5] = assay: Hypocholesterolemic activity in C57BL/6 mouse assessed as increase in LDLR level at 30 mg/kg; assay type: functional
Mus musculus [6] = assay: Hypocholesterolemic activity in C57BL/6 mouse assessed as reduction in TC level at 30 mg/kg; assay type: functional; parameters: scale not given: the % may be the effect or the level left
[7] = molecular target: T1, Proprotein convertase subtilisin/kexin type 9; assay: Inhibition of PCSK9 (unknown origin)
[8] = molecular target: T1, Proprotein convertase subtilisin/kexin type 9; assay: Inhibition of PCSK9 in human HepG2 cells assessed as restoration of LDLR; assay type: cell-based
[9] = molecular target: T1, Proprotein convertase subtilisin/kexin type 9; assay: Inhibition of PCSK9 in human HepG2 cells assessed as increase in LDL uptake; assay type: cell-based
[10] = molecular target: T1, Proprotein convertase subtilisin/kexin type 9; assay: Inhibition of PCSK9 in human HepG2 cells assessed as increase in LDL uptake at 10 uM; assay type: cell-based

T1 sequence (Q8NBP7 31-152 limits assumed): as the sequence (Q8NBP7 31-152 limits assumed) above
T1 sequence (Q8NBP7 153-692 limits assumed): as the sequence (Q8NBP7 153-692 limits assumed) above

Row | Kd [1] | IC50 (PCSK9/LDLR [2]) | Kd [3] | EC50 (PCSK9/LDLR [4]) | IC50 [7] | EC50 [8] | EC50 [9] | inhibition [10] | SMILES | Activity (Mus musculus [5]) | Activity (Mus musculus [6])
1 | 6.1 nM | 2 nM | 21 nM | 170 nM |  |  |  |  | CCNC(=O)[C@@H]1CSCC(=O)N[C@@H](Cc2ccccc2)C(=O)N[C@@H](C(C)C)C(=O)N2CCC[C@H]2C(=O)N[C@@H]([C@@H](C)O)C(=O)N[C@@H]([C@@H](C)O)C(=O)N[C@@H](Cc2ccc(-c3ccccc3)cc2)C(=O)N(C)[C@@H](C)C(=O)N[C@@H](Cc2ccc(-c3ccccc3)cc2)C(=O)N(C)[C@@H](C)C(=O)N[C@@H](CCC(=O)O)C(=O)N[C@@H](C)C(=O)N2CCC[C@H]2C(=O)N1 | 90% | 43%
2 |  |  |  |  | 230 nM |  |  |  | CC(=O)N[C@H](CSCc1cn(CCCCCC(=O)NCCOCCOCCOCCOCCOCCOCCOCCOCCOCCOCCC(=O)NCCCC[C@H](NC(=O)COCCOCCOCCOCCOCCOCCOCCOCCOCCOCCNC(=O)C(N)CCCCn2cc(CSC[C@@H](NC(C)=O)C(=O)N[C@H](C(=O)N[C@H](C(=O)N[C@@H](Cc3ccccc3)C(=O)N[C@H](C(=O)N[C@@H](CO)C(=O)N[C@@H](Cc3c[nH]c4ccccc34)C(=O)N[C@@H](CCC(=O)O)C(=O)N[C@@H](CCC(=O)O)C(=O)N[C@@H](Cc3ccc(O)cc3)C(=O)N[C@@H](CC(C)C)C(=O)N[C@@H](CC(=O)O)C(=O)N[C@@H](Cc3c[nH]c4ccccc34)C(=O)N[C@H](C(=O)N[C@@H](CCCNC(=N)N)C(=O)N[C@@H](CCCNC(=N)N)C(=O)NCC(=O)O)C(C)C)[C@@H](C)O)C(C)C)[C@@H](C)O)nn2)C(=O)NCC(=O)N[C@@H](CCCNC(=N)N)C(=O)N[C@@H](CCCNC(=N)N)C(=O)N[C@@H](CCCCN)C(=O)N[C@@H](Cc2c[nH]c3ccccc23)C(N)=O)nn1)C(=O)N[C@H](C(=O)N[C@H](C(=O)N[C@@H](Cc1ccccc1)C(=O)N[C@H](C(=O)N[C@@H](CO)C(=O)N[C@@H](Cc1c[nH]c2ccccc12)C(=O)N[C@@H](CCC(=O)O)C(=O)N[C@@H](CCC(=O)O)C(=O)N[C@@H](Cc1ccc(O)cc1)C(=O)N[C@@H](CC(C)C)C(=O)N[C@@H](CC(=O)O)C(=O)N[C@@H](Cc1c[nH]c2ccccc12)C(=O)N[C@H](C(=O)N[C@@H](CCCNC(=N)N)C(=O)N[C@@H](CCCNC(=N)N)C(=O)NCC(=O)O)C(C)C)[C@@H](C)O)C(C)C)[C@@H](C)O (stereo partly specified) |  | 
3 |  | 800 nM |  |  |  | 5000 nM | 6000 nM | 56.5% | CC(=O)N[C@H](C(=O)N[C@H](C(=O)N[C@@H](Cc1ccccc1)C(=O)N[C@H](C(=O)N[C@@H](CO)C(=O)N[C@@H](Cc1c[nH]c2ccccc12)C(=O)N[C@@H](CCC(=O)O)C(=O)N[C@@H](CCC(=O)O)C(=O)N[C@@H](Cc1ccc(O)cc1)C(=O)N[C@@H](CC(C)C)C(=O)N[C@@H](CC(=O)O)C(=O)N[C@@H](Cc1c[nH]c2ccccc12)C(=O)N[C@H](C(N)=O)C(C)C)[C@@H](C)O)C(C)C)[C@@H](C)O |  | 
